# Data reported in US10597387B2, “Methods to treat lymphoplasmacytic lymphoma” (Dana-Farber Cancer Institute, Inc., priority 2013, dated 2020).
# Where two headings read alike, the source gives them in different places.
# Assays:
# Experiment in all cases: KiNativ kinase profiling
# PITSLRE = assay type: binding, Homo sapiens; details: Lys2, 1 μM, A375 cells
# TLK1 = TLK1 (Homo sapiens (Human), UniProt Q9UKI8); assay type: binding; details: Lys2, A375 cells, read-out: inhibition of kinase labeling
# MST4, YSK1 = assay type: binding, Homo sapiens; details: Lys2, 1 μM, A375 cells
# MAP2K6 = MAP2K6 (Homo sapiens (Human), UniProt P52564); assay type: binding; details: Lys2, A375 cells, read-out: inhibition of kinase labeling
# CK1a = CK1a (Homo sapiens (Human), UniProt P48729); assay type: binding; details: Lys2, A375 cells, read-out: inhibition of kinase labeling
# TAO2 = TAO2 (Homo sapiens (Human), UniProt Q9UL54); assay type: binding; details: Lys2, A375 cells, read-out: inhibition of kinase labeling
# MST2 = MST2 (Homo sapiens (Human), UniProt Q13188); assay type: binding; details: Lys1, A375 cells, read-out: inhibition of kinase labeling
# LYN = LYN (Homo sapiens (Human), UniProt P07948); assay type: binding; details: read-out: inhibition of kinase labeling
# GSK3A = GSK3A (Homo sapiens (Human), UniProt P49840); assay type: binding; details: Lys2, A375 cells, read-out: inhibition of kinase labeling
# JNK1, JNK2, JNK3 = assay type: binding, Homo sapiens; details: Lys2, 1 μM, A375 cells
# PKD3 = PKD3 (Homo sapiens (Human), UniProt O94806); assay type: binding; details: Lys2, A375 cells, read-out: inhibition of kinase labeling
# PIP4K2C = PIP4K2C (Homo sapiens (Human), UniProt Q8TBX8); assay type: binding; details: ATP, A375 cells, read-out: inhibition of kinase labeling
# PKD1, PKD2 = assay type: binding, Homo sapiens; details: Lys2, 1 μM, A375 cells
# MAP2K7 = MAP2K7 (Homo sapiens (Human), UniProt O14733); assay type: binding; details: Lys2, A375 cells, read-out: inhibition of kinase labeling
# PYK2 = PYK2 (Homo sapiens (Human), UniProt Q14289); assay type: binding; details: Activation Loop, A375 cells, read-out: inhibition of kinase labeling
# PLK1 = PLK1 (Homo sapiens (Human), UniProt P53350); assay type: binding; details: Lys1, A375 cells, read-out: inhibition of kinase labeling
# MASTL = MASTL (Homo sapiens (Human), UniProt Q96GX5); assay type: binding; details: Lys1, A375 cells, read-out: inhibition of kinase labeling
# IKKe = IKKe (Homo sapiens (Human), UniProt Q14164); assay type: binding; details: Lys1, A375 cells, read-out: inhibition of kinase labeling
# PIK3CD = PIK3CD (Homo sapiens (Human), UniProt O00329); assay type: binding; details: ATP, A375 cells, read-out: inhibition of kinase labeling
# PIK3CB = PIK3CB (Homo sapiens (Human), UniProt P42338); assay type: binding; details: ATP, A375 cells, read-out: inhibition of kinase labeling
# FER = FER (Homo sapiens (Human), UniProt P16591); assay type: binding; details: Lys1, A375 cells, read-out: inhibition of kinase labeling
# BARK1 = BARK1 (Homo sapiens (Human), UniProt P25098); assay type: binding; details: Lys2, A375 cells, read-out: inhibition of kinase labeling
# ABL, ARG = assay type: binding, Homo sapiens; details: Activation Loop, 1 μM, A375 cells
# p38d, p38g = assay type: binding, Homo sapiens; details: Lys2, 1 μM, A375 cells
# NEK3 = NEK3 (Homo sapiens (Human), UniProt P51956); assay type: binding; details: Activation Loop, A375 cells, read-out: inhibition of kinase labeling
# STLK6 = STLK6 (Homo sapiens (Human), UniProt Q9C0K7); assay type: binding; details: Lys2, A375 cells, read-out: inhibition of kinase labeling
# CHK2 = CHK2 (Homo sapiens (Human), UniProt O96017); assay type: binding; details: Lys1, A375 cells, read-out: inhibition of kinase labeling
# CaMK1d = CaMK1d (Homo sapiens (Human), UniProt Q8IU85); assay type: binding; details: Lys1, A375 cells, read-out: inhibition of kinase labeling
# MAST3 = MAST3 (Homo sapiens (Human), UniProt O60307); assay type: binding; details: Lys2, A375 cells, read-out: inhibition of kinase labeling
# CSK = CSK (Homo sapiens (Human), UniProt P41240); assay type: binding; details: Activation Loop, A375 cells, read-out: inhibition of kinase labeling
# CDK7 = CDK7 (Homo sapiens (Human), UniProt P50613); assay type: binding; details: Lys2, A375 cells, read-out: inhibition of kinase labeling
# BLK = BLK (Homo sapiens (Human), UniProt P51451); assay type: binding; details: Activation Loop, A375 cells, read-out: inhibition of kinase labeling
# SGK3 = SGK3 (Homo sapiens (Human), UniProt Q96BR1); assay type: binding; details: Lys1, A375 cells, read-out: inhibition of kinase labeling
# ILK = ILK (Homo sapiens (Human), UniProt Q13418); assay type: binding; details: Protein Kinase Domain, A375 cells, read-out: inhibition of kinase labeling
# Sequence of LYN (P07948 whole entry): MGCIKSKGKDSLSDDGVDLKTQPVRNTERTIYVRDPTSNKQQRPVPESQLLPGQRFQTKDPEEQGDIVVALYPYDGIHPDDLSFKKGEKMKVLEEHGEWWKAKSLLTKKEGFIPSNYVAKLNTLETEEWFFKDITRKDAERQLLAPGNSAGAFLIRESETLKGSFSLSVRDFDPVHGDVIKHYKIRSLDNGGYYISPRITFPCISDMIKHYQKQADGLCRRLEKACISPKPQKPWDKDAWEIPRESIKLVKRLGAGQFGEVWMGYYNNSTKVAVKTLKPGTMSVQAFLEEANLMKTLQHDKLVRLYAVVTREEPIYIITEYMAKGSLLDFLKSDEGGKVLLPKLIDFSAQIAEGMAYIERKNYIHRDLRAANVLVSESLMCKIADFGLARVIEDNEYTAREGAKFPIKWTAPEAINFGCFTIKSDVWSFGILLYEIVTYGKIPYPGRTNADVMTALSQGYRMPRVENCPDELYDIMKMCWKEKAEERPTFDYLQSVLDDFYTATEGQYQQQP
# Sequence of CaMK1d (Q8IU85 whole entry): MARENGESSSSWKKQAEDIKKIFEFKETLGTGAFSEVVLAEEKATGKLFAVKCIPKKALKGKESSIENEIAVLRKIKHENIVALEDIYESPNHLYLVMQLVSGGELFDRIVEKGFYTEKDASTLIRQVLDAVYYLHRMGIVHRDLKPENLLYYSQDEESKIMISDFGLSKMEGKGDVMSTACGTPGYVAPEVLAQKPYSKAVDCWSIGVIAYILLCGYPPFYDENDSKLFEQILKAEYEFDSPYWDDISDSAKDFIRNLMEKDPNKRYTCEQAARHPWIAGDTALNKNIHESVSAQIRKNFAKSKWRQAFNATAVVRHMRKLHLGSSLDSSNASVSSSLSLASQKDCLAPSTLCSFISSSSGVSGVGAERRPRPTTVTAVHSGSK
# Sequence of PIK3CD (O00329 whole entry): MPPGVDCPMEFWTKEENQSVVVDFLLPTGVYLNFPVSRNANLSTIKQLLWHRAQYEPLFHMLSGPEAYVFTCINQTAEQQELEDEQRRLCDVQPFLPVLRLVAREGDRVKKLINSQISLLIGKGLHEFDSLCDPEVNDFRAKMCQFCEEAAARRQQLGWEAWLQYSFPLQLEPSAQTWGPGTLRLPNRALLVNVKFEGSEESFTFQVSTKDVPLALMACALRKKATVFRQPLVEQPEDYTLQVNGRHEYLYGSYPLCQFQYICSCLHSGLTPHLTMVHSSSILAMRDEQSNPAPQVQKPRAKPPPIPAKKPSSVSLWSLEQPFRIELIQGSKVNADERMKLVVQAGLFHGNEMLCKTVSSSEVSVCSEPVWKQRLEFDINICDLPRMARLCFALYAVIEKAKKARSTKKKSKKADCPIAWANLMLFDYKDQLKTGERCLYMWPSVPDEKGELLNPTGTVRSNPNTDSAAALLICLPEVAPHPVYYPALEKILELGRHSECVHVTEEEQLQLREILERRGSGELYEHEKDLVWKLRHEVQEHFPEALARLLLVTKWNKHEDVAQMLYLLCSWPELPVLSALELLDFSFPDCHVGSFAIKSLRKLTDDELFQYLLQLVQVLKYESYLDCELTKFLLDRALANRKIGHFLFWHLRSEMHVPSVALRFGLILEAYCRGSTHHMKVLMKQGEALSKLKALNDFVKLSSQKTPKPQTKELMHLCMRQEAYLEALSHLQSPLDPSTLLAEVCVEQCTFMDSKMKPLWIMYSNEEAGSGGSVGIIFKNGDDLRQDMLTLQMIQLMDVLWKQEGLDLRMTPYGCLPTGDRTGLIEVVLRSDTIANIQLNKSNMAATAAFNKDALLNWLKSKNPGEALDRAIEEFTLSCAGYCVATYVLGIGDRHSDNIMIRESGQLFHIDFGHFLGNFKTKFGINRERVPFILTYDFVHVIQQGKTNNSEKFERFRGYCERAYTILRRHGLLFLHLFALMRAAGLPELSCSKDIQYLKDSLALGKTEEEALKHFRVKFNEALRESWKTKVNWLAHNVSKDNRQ
# Sequence of PIK3CD (P27986 whole entry partner): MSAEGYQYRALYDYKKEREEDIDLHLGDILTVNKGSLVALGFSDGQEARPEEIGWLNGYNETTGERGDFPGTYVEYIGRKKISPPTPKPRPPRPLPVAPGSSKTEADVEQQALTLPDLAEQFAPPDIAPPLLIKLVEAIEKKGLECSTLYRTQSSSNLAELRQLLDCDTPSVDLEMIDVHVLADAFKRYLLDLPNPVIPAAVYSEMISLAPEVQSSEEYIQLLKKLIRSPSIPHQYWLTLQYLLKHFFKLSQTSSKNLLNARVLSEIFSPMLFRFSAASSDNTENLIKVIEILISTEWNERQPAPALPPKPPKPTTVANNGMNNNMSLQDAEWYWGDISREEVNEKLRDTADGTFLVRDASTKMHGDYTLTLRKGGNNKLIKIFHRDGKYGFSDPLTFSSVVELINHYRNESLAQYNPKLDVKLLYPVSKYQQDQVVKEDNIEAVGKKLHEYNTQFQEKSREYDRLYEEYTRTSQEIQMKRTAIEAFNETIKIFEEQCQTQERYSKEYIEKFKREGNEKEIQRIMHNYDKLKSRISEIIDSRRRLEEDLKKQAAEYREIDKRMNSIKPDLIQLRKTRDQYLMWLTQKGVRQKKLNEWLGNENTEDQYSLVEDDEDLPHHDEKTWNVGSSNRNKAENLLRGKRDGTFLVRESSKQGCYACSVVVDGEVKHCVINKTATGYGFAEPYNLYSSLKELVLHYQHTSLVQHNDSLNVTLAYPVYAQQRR
# Sequence of BARK1 (P25098 whole entry): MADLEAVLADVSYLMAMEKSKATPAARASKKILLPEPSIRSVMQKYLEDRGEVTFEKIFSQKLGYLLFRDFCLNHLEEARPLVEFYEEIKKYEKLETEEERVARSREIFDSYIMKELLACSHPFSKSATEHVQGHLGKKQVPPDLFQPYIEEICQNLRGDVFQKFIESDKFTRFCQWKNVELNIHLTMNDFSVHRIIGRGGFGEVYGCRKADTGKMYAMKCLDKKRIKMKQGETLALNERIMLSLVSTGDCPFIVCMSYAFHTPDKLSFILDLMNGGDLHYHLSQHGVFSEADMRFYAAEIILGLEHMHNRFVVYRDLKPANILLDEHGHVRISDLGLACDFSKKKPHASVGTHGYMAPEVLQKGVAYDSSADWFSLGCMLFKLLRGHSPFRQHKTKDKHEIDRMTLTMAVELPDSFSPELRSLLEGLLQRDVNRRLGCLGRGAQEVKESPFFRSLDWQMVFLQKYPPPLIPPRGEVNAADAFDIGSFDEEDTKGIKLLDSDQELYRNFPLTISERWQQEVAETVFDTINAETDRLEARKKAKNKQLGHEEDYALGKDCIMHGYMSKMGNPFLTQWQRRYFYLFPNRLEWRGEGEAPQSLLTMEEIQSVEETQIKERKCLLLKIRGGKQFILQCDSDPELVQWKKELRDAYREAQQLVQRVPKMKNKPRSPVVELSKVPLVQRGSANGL
# Sequence of STLK6 (Q9C0K7 whole entry): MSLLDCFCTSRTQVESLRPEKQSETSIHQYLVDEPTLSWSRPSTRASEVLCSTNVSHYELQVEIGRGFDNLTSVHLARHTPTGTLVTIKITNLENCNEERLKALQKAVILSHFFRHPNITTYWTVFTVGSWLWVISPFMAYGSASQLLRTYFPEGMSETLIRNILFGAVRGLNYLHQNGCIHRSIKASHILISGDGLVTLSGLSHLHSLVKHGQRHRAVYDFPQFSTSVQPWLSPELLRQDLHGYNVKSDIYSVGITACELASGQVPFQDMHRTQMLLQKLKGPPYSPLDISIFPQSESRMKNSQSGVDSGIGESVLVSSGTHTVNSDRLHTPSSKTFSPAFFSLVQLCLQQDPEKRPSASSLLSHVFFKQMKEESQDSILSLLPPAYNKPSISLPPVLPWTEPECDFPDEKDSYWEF
# Sequence of PLK1 (P53350 whole entry): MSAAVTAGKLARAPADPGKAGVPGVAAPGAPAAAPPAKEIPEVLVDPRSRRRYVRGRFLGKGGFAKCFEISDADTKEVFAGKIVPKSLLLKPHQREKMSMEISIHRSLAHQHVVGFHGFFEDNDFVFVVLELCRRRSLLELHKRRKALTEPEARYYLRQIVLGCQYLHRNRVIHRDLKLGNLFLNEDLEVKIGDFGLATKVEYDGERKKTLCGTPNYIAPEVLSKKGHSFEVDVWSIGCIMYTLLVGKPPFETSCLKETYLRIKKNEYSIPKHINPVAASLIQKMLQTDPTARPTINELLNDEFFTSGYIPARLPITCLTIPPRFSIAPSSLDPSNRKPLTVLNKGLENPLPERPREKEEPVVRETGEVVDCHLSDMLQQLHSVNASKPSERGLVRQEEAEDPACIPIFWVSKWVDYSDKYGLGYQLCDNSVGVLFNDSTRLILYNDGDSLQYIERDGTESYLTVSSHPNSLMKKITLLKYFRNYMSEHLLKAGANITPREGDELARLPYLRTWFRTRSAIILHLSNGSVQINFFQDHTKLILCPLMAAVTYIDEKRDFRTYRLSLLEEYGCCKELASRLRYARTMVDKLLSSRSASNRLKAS
# Sequence of CHK2 (O96017 whole entry): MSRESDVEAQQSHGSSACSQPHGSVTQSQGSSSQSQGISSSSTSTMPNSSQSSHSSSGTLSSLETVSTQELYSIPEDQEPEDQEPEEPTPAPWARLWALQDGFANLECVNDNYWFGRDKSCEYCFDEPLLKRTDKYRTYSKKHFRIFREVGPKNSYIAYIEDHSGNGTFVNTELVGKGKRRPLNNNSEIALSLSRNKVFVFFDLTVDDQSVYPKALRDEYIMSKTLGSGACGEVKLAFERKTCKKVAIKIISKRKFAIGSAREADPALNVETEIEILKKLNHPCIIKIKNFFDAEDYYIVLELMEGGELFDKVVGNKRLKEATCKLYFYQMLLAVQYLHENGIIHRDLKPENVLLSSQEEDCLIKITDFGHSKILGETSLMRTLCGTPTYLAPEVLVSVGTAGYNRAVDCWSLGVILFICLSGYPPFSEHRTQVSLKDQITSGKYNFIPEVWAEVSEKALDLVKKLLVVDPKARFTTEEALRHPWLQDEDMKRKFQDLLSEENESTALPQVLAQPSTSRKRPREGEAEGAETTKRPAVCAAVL
smiles,measurement,setting,value
"Cc1ccc(C(=O)Nc2cccc(C(C)(C)C#N)c2)cc1NC(=O)c1cncc(-c2cccs2)c1 [I-6, N-(5-((3-(2-cyanopropan-2-yl)phenyl)carbamoyl)-2-methylphenyl)-5-(thiophen-2-yl)nicotinamide]",inhibition of kinase labeling,PITSLRE,1.9%
same,inhibition at 1 µM,TLK1,3.9%
same,inhibition of kinase labeling,"MST4, YSK1",22%
same,inhibition at 1 µM,MAP2K6,9.4%
same,inhibition at 1 µM,CK1a,25.1%
same,inhibition at 1 µM,TAO2,33.4%
same,inhibition at 1 µM,MST2,-6.1%
same,inhibition at 1 µM,"LYN; Activation Loop, A375 cells",68.5%
same,inhibition at 1 µM,"LYN; Lys1, A375 cells",87.6%
same,inhibition at 1 µM,GSK3A,17.3%
same,inhibition of kinase labeling,"JNK1, JNK2, JNK3",11.7%
same,inhibition at 1 µM,PKD3,-4.5%
same,inhibition at 1 µM,PIP4K2C,12.3%
same,inhibition of kinase labeling,"PKD1, PKD2",−2.5%
same,inhibition at 1 µM,MAP2K7,-3%
same,inhibition at 1 µM,PYK2,5.4%
same,inhibition at 1 µM,PLK1,-5.4%
same,inhibition at 1 µM,MASTL,-3.7%
same,inhibition at 1 µM,IKKe,3.8%
same,inhibition at 1 µM,PIK3CD,-6.8%
same,inhibition at 1 µM,PIK3CB,2.8%
same,inhibition at 1 µM,FER,-9.6%
same,inhibition at 1 µM,BARK1,-1.2%
same,inhibition of kinase labeling,"ABL, ARG",>90%
same,inhibition of kinase labeling,"p38d, p38g",17.8%
same,inhibition at 1 µM,NEK3,10%
same,inhibition at 1 µM,STLK6,44.8%
same,inhibition at 1 µM,CHK2,4.7%
same,inhibition at 1 µM,CaMK1d,-17.8%
same,inhibition at 1 µM,MAST3,18.9%
same,inhibition at 1 µM,CSK,23.3%
same,inhibition at 1 µM,CDK7,-6.8%
same,inhibition at 1 µM,BLK,68.8%
same,inhibition at 1 µM,SGK3,-7.2%
same,inhibition at 1 µM,ILK,17.2%
